EP2966448B1, “METHOD FOR THE PREDICTION OR PROGNOSIS OF THE RESPONSE OF A HUMAN SUBJECT SUFFERING FROM CANCER TO TREATMENT WITH AN ANTAGONIST OF THE NK1 RECEPTOR” (priority 2013, dated 2014)
Where two headings read alike, the source gives them in different places.

Assays:
[1] = test system: Glioma; assay: Inhibition of primary tumor cell cultures (48 hours) vs NK1 receptor immunostaining (Example 1); assay type: cell-based; conditions: Homo sapiens, 1 micromolar, read-out: Percentage of inhibition of cell cultures
Protocol: (§1) Cell cultures. To obtain tumor cells from human primary tumors we used the method described in De Bari et al. (De Bari et al. 2001). Briefly, small pieces of the tumors were digested into a hyaluronidase solution (Sigma-Aldrich, USA) at a concentration of 1 mg/ml during 15 minutes at 37°C, and then they were treated with 6 mg/ml of collagenase type IV (Invitrogen) during 2 hours at 37°C. Consecutively, cells were washed, and resuspended in the DMEM culture medium with high concentration of glucose (Dulbecco's Modified Eagle's Medium, Invitrogen) supplemented with 1% of antibiotics-antimycotics (Invitrogen) and with 1% of sodium pyruvate (Invitrogen), and the cells were seeded in culture slides at a concentration of 10.000 cells per square centimeter. When cells reached confluence, the adherent cells were separated using sterile trypsin at 0,5% (Invitrogen) and they were used among passages 3 and 9. For the assays shown next, tumor cells were seeded on slides at a concentration of 25.000 cells per well. A total of 6 wells containing the tumor cells were used as survival control. […] All the cultures were kept during 48 hours and later on recollected for their analysis.
(§2) Immunohistochemistry techniques. The presence of NK1 receptors was also analyzed using immunohistochemistry techniques. Briefly, a sample of each of the cultures of the cell lines used in the present invention, was centrifuged (5 minutes at 1.500 rpm) and the pellet obtained was dehydrated using increasing concentrations of ethanol and, finally, xylol. Then, said dehydrated samples were embedded in paraffin, creating a block of cells. Such paraffin blocks were cut with a microtome at 5 microns thickness, and were placed on microscope slides adequate to perform immunohistochemistry techniques. Consecutively, they were de-paraffinized by immersing them in xylol, to be finally hydrated using a solution containing decreasing concentrations of ethanol, and finally submerged them into water. […] After this, the samples were left to cool down at room temperature for 10 minutes. The endogenous peroxidase activity was blocked with 3% peroxide of hydrogen for 30 minutes at room temperature. After washing the samples with 0.05 M of Tris buffer, they were incubated with 10% non-immune pork serum at for 30 minutes at room temperature. To analyze the expression of NK1 receptors, the cellular samples were incubated in the presence of anti-NK1 antibodies (S8305, Sigma-Aldrich) diluted 1:1000, overnight at 4°C. Afterwards, the samples were washed in Tris buffer 0.05 M at room temperature. The next step was the addition of Envision System-HRP (Dako) reagents for 30 minutes at room temperature. Then, the samples were washed again in Tris buffer 0.05 M and the immunoreactivity was visualized through light microscopy with a chromogenic solution containing 3,3'-Diaminobenzidine (DAB+; Dako, USA). To differentiate the cell nuclei, they were slightly stained with hematoxylin. As negative control, it was used samples not incubated with the primary antibody anti-NK1, which was replaced by non-immune serum. All the samples were evaluated.
(§3) To value the immunostaining in each of the cases six cuts were performed to be analyzed by the immunohistochemistry technique. In each of the six cuts, it was counted cells in 20 fields (magnification 400x) using an Olympus microscope (model CX31). In each field it was counted the total number of cells and the number of cells presenting immunostaining, calculating afterwards the percentage of cells which presented immunostaining.

[2] = test system: Renal cell carcinoma; assay: as above; assay type: cell-based; conditions: Homo sapiens, 1 micromolar, read-out: Percentage of inhibition of cell cultures
Protocol: as §1, §2, §3

[3] = test system: Renal cell carcinoma (clear cell renal cell carcinoma); assay: Inhibition of primary tumor cell cultures vs Kras mutation (Example 2); assay type: cell-based, human; conditions: Homo sapiens, 100 micromolar, read-out: Percentage of inhibition of cell cultures
Protocol: as §1
(§4) In each case the presence or not of mutations in K-ras gene was determined.
(§5) To determine the existence of mutations in the K-ras gene DNA from cancer tumor cells was extracted from samples obtained from the different cancer tumor cells, using DNA extraction kits from Takara (Madison, WI, US) or Ambion (Huntingdon, Cambridgeshire, United Kingdom), following the manufacturer's instructions, and as it has been previously published (Di Fiore F, et al. 2007). Consecutively it was analyzed by sequencing the exon 2 of the KRAS gene, , by means of PCR amplification from previously extracted cancer tumor DNA, using the following sense primer (SEQ ID NO. 15): 5'-[sequence]-3' and anti-sense primer (SEQ ID NO. 16): 5'-[sequence]-3'. After the purification using the Qiagen extraction kit, the PCR products were sequenced using the Big Dye Terminator Kit V3.1 (Applied Biosystems, Foster City, CA, U.S.) and an ABI Prism 377 or 3100 DNA sequencer (Applied Biosystems). The presence of a heterozygous mutation in the KRAS gene in cancer tumor cells of the cultures was defined as the appearance of a mutant peak of a height of at least a third of the wild type. All the sequence analysis were executed at least twice in two independent PCR.
(§6) The antibody against NK1 receptor (Table 16) was used at 1/50 concentration. The percentages of inhibition are expressed in percentage of variation in relation to control ± standard deviation.

[4] = test system: Ewing Sarcoma; assay: Inhibition of primary tumor cell cultures (48 hours) vs NK1 receptor immunostaining (Example 1); assay type: cell-based; conditions: Homo sapiens, 1 micromolar, read-out: Percentage of inhibition of cell cultures
Protocol: as §1, §2, §3

[5] = test system: Myeloma; assay: as above; assay type: cell-based; conditions: Homo sapiens, 1 micromolar, read-out: Percentage of inhibition of cell cultures
Protocol: as §1, §2, §3

[6] = test system: Prostate carcinoma; assay: cells; conditions: Homo sapiens, 1 micromolar
Protocol: as §1, §2, §3

[7] = test system: Carcinoma of the uterine cervix (Squamous cell carcinoma); assay: Inhibition of primary tumor cell cultures vs Kras mutation (Example 2); assay type: cell-based, human; conditions: Homo sapiens, 100 micromolar, read-out: Percentage of inhibition of cell cultures
Protocol: as §1, §4, §5, §6

[8] = test system: Thyroid carcinoma (follicular carcinoma); assay: as above; assay type: cell-based, human; conditions: Homo sapiens, 100 micromolar, read-out: Percentage of inhibition of cell cultures
Protocol: To obtain tumor cells from human primary tumors we used the method described in De Bari et al. (De Bari et al. 2001). Briefly, small pieces of the tumors were digested into a hyaluronidase solution (Sigma-Aldrich, USA) at a concentration of 1 mg/ml during 15 minutes at 37°C, and then they were treated with 6 mg/ml of collagenase type IV (Invitrogen) during 2 hours at 37°C. Consecutively, cells were washed, and resuspended in the DMEM culture medium with high concentration of glucose (Dulbecco's Modified Eagle's Medium, Invitrogen) supplemented with 1% of antibiotics-antimycotics (Invitrogen) and with 1% of sodium pyruvate (Invitrogen), and the cells were seeded in culture slides at a concentration of 10.000 cells per square centimeter. When cells reached confluence, the adherent cells were separated using sterile trypsin at 0,5% (Invitrogen) and they were used among passages 3 and 9. For the assays shown next, tumor cells were seeded on slides at a concentration of 25.000 cells per well. A total of 6 wells containing the tumor cells were used as survival control. […] All the cultures were kept during 48 hours and later on recollected for their analysis.
as §4, §5, §6

[9] = test system: human primary tumor cells; assay: Inhibition of primary tumor cell cultures vs absence or presence of ERK  protein (Example 3; tumor type per table line); assay type: cell-based; conditions: for Percentage of inhibition of cell cultures: 100 micromolar
Protocol: Cell cultures. […] Briefly, small pieces of the tumors were digested into a hyaluronidase solution (Sigma-Aldrich, USA) at a concentration of 1 mg/ml during 15 minutes at 37°C, and then they were treated with 6 mg/ml of collagenase type IV (Invitrogen) during 2 hours at 37°C. Consecutively, cells were washed, and resuspended in the DMEM culture medium with high concentration of glucose (Dulbecco's Modified Eagle's Medium, Invitrogen) supplemented with 1% of antibiotics-antimycotics (Invitrogen) and with 1% of sodium pyruvate (Invitrogen), and the cells were seeded in culture slides at a concentration of 10.000 cells per square centimeter. When cells reached confluence, the adherent cells were separated using sterile trypsin at 0,5% (Invitrogen) and they were used among passages 3 and 9. For the assays shown next, tumor cells were seeded on slides at a concentration of 25.000 cells per well. A total of 6 wells containing the tumor cells were used as survival control. […] All the cultures were kept during 48 hours and later on recollected for their analysis.
Consecutively, the cells were placed in cultures in the presence of several antagonists of the NK1 receptor.
In each case it was determined the presence or absence of the downstream effector in the MAP Kinases ERK pathway.
To determine the presence of the ERK protein, it was performed a Western Blot technique, using as primary antibody: Phospho-p44/42 MAPK (Erk1/2) (Thr202/Tyr204) (D13.14.4E) XP® Rabbit mAb (4370, Cell Signalling). To determine the presence of the MEK protein, it was performed the Western Blot technique, using as primary antibody Phospho-MEK1/2 (Ser217/221) (9121, Cell Signalling).
The antibody against NK1 receptor (Table 21) was used at 1/50 concentration. The percentages of inhibition are expressed in percentages of variation in relation to control ± standard deviation.

[10] = test system: Endometrium carcinoma; assay: cells; conditions: Homo sapiens, 1 micromolar
[11] = NK1 receptor immunostaining Group 1 (less than 20% of the cells)
[12] = NK1 receptor immunostaining Group 2 (20-80% of the cells)
[13] = NK1 receptor immunostaining Group 3 (more than 80% of the cells)
[14] = NK1 receptor immunostaining Intensity grade 1
[15] = NK1 receptor immunostaining Intensity grade 2
[16] = NK1 receptor immunostaining Intensity grade 3
[17] = Cases with Kras non-mutated (wild type)
[18] = read-out: Percentage of inhibition of cell cultures, NK1 receptor immunostaining Group 1 (less than 20% of the cells)
[19] = read-out: Percentage of inhibition of cell cultures, NK1 receptor immunostaining Group 2 (20-80% of the cells)
[20] = read-out: Percentage of inhibition of cell cultures, NK1 receptor immunostaining Group 3 (more than 80% of the cells)

## CC(=O)N1CCN([C@H]2CCN(C(=O)N(C)[C@H](C)c3cc(C(F)(F)F)cc(C(F)(F)F)c3)[C@@H](c3ccc(F)cc3C)C2)CC1 [Casopitant]
[1]; [11]
  inhibition at 1 µM: 16 ± 3%
[1]; [12]
  inhibition at 1 µM: 46 ± 4%
[1]; [13]
  inhibition at 1 µM: 93 ± 5%
[1]; [14]
  inhibition at 1 µM: 36 ± 3%
[1]; [15]
  inhibition at 1 µM: 54 ± 5%
[1]; [16]
  inhibition at 1 µM: 91 ± 3%
[2]; [11]
  inhibition at 1 µM: 16 ± 4%
[2]; [12]
  inhibition at 1 µM: 46 ± 3%
[2]; [13]
  inhibition at 1 µM: 91 ± 5%
[2]; [14]
  inhibition at 1 µM: 34 ± 2%
[2]; [15]
  inhibition at 1 µM: 55 ± 5%
[2]; [16]
  inhibition at 1 µM: 91 ± 4%
[3]; Cases with Kras mutated
  inhibition at 100 µM: 27 ± 4%
[3]; [17]
  inhibition at 100 µM: 94 ± 3%
[4]; [11]
  inhibition at 1 µM: 15 ± 2%
[4]; [12]
  inhibition at 1 µM: 47 ± 5%
[4]; [13]
  inhibition at 1 µM: 93 ± 5%
[4]; [14]
  inhibition at 1 µM: 33 ± 4%
[4]; [15]
  inhibition at 1 µM: 54 ± 3%
[4]; [16]
  inhibition at 1 µM: 92 ± 4%
[5]; [11]
  inhibition at 1 µM: 16 ± 3%
[5]; [12]
  inhibition at 1 µM: 47 ± 4%
[5]; [13]
  inhibition at 1 µM: 94 ± 5%
[5]; [14]
  inhibition at 1 µM: 35 ± 3%
[5]; [15]
  inhibition at 1 µM: 55 ± 3%
[5]; [16]
  inhibition at 1 µM: 93 ± 3%
[6]; [18]
  inhibition at 1 µM: 16 ± 2%
[6]; [19]
  inhibition at 1 µM: 45 ± 4%
[6]; [20]
  inhibition at 1 µM: 93 ± 4%
[6]; read-out: Percentage of inhibition of cell cultures, NK1 receptor immunostaining Intensity grade 1
  inhibition at 1 µM: 33 ± 5%
[6]; read-out: Percentage of inhibition of cell cultures, NK1 receptor immunostaining Intensity grade 2
  inhibition at 1 µM: 53 ± 3%
[6]; read-out: Percentage of inhibition of cell cultures, NK1 receptor immunostaining Intensity grade 3
  inhibition at 1 µM: 94 ± 2%
[7]; Cases with Kras mutated
  inhibition at 100 µM: 27 ± 3%
[7]; [17]
  inhibition at 100 µM: 93 ± 3%
[8]; Cases with Kras mutated
  inhibition at 100 µM: 26 ± 4%
[8]; [17]
  inhibition at 100 µM: 96 ± 4%
[9]; Breast carcinoma (ductal adenocarcinoma), cases with presence of ERK
  Percentage of inhibition of cell cultures: 93±4 percentage
[9]; Breast carcinoma (ductal adenocarcinoma), cases without presence of ERK
  Percentage of inhibition of cell cultures: 26±4 percentage
[9]; Burkitt Lymphoma, cases with presence of ERK
  Percentage of inhibition of cell cultures: 97±5 percentage
[9]; Burkitt Lymphoma, cases without presence of ERK
  Percentage of inhibition of cell cultures: 28±6 percentage
[9]; Carcinoma of the uterine cervix (Squamous cell carcinoma), cases with presence of ERK
  Percentage of inhibition of cell cultures: 93±4 percentage
[9]; Carcinoma of the uterine cervix (Squamous cell carcinoma), cases without presence of ERK
  Percentage of inhibition of cell cultures: 28±3 percentage
[9]; Colon carcinoma (Adenocarcinoma), cases with presence of ERK
  Percentage of inhibition of cell cultures: 95±3 percentage
[9]; Colon carcinoma (Adenocarcinoma), cases without presence of ERK
  Percentage of inhibition of cell cultures: 24±3 percentage
[9]; Endometrium carcinoma, cases with presence of ERK
  Percentage of inhibition of cell cultures: 93±5 percentage
[9]; Endometrium carcinoma, cases without presence of ERK
  Percentage of inhibition of cell cultures: 29±2 percentage
[9]; Gastric carcinoma (Adenocarcinoma), cases with presence of ERK
  Percentage of inhibition of cell cultures: 96±4 percentage
[9]; Gastric carcinoma (Adenocarcinoma), cases without presence of ERK
  Percentage of inhibition of cell cultures: 25±6 percentage
[9]; Glioma (astrocytoma), cases with presence of ERK
  Percentage of inhibition of cell cultures: 93±4 percentage
[9]; Glioma (astrocytoma), cases without presence of ERK
  Percentage of inhibition of cell cultures: 28±3 percentage
[9]; Lung carcinoma (non small cell lung carcinoma), cases with presence of ERK
  Percentage of inhibition of cell cultures: 95±7 percentage
[9]; Lung carcinoma (non small cell lung carcinoma), cases without presence of ERK
  Percentage of inhibition of cell cultures: 27±5 percentage
[9]; Lung carcinoma (small cell lung carcinoma), cases with presence of ERK
  Percentage of inhibition of cell cultures: 94±5 percentage
[9]; Lung carcinoma (small cell lung carcinoma), cases without presence of ERK
  Percentage of inhibition of cell cultures: 29±4 percentage
[9]; Melanoma (Nodular Melanoma), cases with presence of ERK
  Percentage of inhibition of cell cultures: 96±5 percentage
[9]; Melanoma (Nodular Melanoma), cases without presence of ERK
  Percentage of inhibition of cell cultures: 27±5 percentage
[9]; Non Hodgkin Lymphoma B (diffuse B cell lymphoma), cases with presence of ERK
  Percentage of inhibition of cell cultures: 97±5 percentage
[9]; Non Hodgkin Lymphoma B (diffuse B cell lymphoma), cases without presence of ERK
  Percentage of inhibition of cell cultures: 28±4 percentage
[9]; Non Hodgkin Lymphoma T (diffuse T cell lymphoma), cases with presence of ERK
  Percentage of inhibition of cell cultures: 98±4 percentage
[9]; Non Hodgkin Lymphoma T (diffuse T cell lymphoma), cases without presence of ERK
  Percentage of inhibition of cell cultures: 29±5 percentage
[9]; Ovarian carcinoma (Adenocarcinoma), cases with presence of ERK
  Percentage of inhibition of cell cultures: 92±6 percentage
[9]; Ovarian carcinoma (Adenocarcinoma), cases without presence of ERK
  Percentage of inhibition of cell cultures: 28±5 percentage
[9]; Pancreatic carcinoma (Adenocarcinoma), cases with presence of ERK
  Percentage of inhibition of cell cultures: 94±2 percentage
[9]; Pancreatic carcinoma (Adenocarcinoma), cases without presence of ERK
  Percentage of inhibition of cell cultures: 23±4 percentage
[9]; Prostate carcinoma, cases with presence of ERK
  Percentage of inhibition of cell cultures: 94±5 percentage
[9]; Prostate carcinoma, cases without presence of ERK
  Percentage of inhibition of cell cultures: 27±4 percentage
[9]; Renal cell carcinoma (clear cell renal cell carcinoma), cases with presence of ERK
  Percentage of inhibition of cell cultures: 94±3 percentage
[9]; Renal cell carcinoma (clear cell renal cell carcinoma), cases without presence of ERK
  Percentage of inhibition of cell cultures: 27±3 percentage
[9]; Thyroid carcinoma (follicular carcinoma), cases with presence of ERK
  Percentage of inhibition of cell cultures: 96±6 percentage
[9]; Thyroid carcinoma (follicular carcinoma), cases without presence of ERK
  Percentage of inhibition of cell cultures: 26±4 percentage
[9]; Thyroid carcinoma (papillary carcinoma), cases with presence of ERK
  Percentage of inhibition of cell cultures: 97±4 percentage
[9]; Thyroid carcinoma (papillary carcinoma), cases without presence of ERK
  Percentage of inhibition of cell cultures: 28±3 percentage
[9]; Undifferentiated Pleomorphic Sarcoma (malignant fibrous histiocytoma grade 3), cases with presence of ERK
  Percentage of inhibition of cell cultures: 95±3 percentage
[9]; Undifferentiated Pleomorphic Sarcoma (malignant fibrous histiocytoma grade 3), cases without presence of ERK
  Percentage of inhibition of cell cultures: 26±4 percentage
[9]; Urinary bladder carcinoma (transitional cell carcinoma), cases with presence of ERK
  Percentage of inhibition of cell cultures: 98±2 percentage
[9]; Urinary bladder carcinoma (transitional cell carcinoma), cases without presence of ERK
  Percentage of inhibition of cell cultures: 29±4 percentage
[9]; cancer cell cultures that show more presence of ERK, compared, non-peptidic antagonists 100 micromolar, antibody 1/50
  inhibition of cell proliferation: higher inhibition
[10]; [18]
  inhibition at 1 µM: 16 ± 3%
[10]; [19]
  inhibition at 1 µM: 46 ± 3%
[10]; [20]
  inhibition at 1 µM: 92 ± 3%
